Laboratory results from ChEMBL document CHEMBL5442175, “EUbOPEN Chemogenomics Library - PDSP Secondary Binding” (2024).
Structures can show the parent of a compound that is named as a salt.

Experiments:
[1] = target: Sigma intracellular receptor 2 (Homo sapiens, UniProt Q5BJF2); test: (§1) PDSP Secondary Binding target: TMEM97 - Compounds are tested at 10 uM concentration, plate are incubated at room temperature in the dark for 90 minutes. Reaction are stopped by vacuum filtration onto 0.3% polyethyleneimine soaked filter mats using Filtermate harvester. Scintillation cocktail is then melted onto microwave-dried filters on a hot plate and the radio activity is counted in Microbia counter.
[2] = target: 5-hydroxytryptamine receptor 1D (Homo sapiens, UniProt P28221); test: as §1, with “HTR1D” for “TMEM97”
[3] = target: Kappa-type opioid receptor (Homo sapiens, UniProt P41145); test: as §1, with “OPRK1” for “TMEM97”
[4] = target: 5-hydroxytryptamine receptor 2B (Homo sapiens, UniProt P41595); test: as §1, with “HTR2B” for “TMEM97”
Mu-type opioid receptor = Mu-type opioid receptor (Homo sapiens, UniProt P35372); test: as §1, with “OPRM1” for “TMEM97”
[5] = target: T1, Alpha-2C adrenergic receptor (Homo sapiens, UniProt P18825); test: as §1, with “ADRA2C” for “TMEM97”
T1 sequence (P18825 whole entry): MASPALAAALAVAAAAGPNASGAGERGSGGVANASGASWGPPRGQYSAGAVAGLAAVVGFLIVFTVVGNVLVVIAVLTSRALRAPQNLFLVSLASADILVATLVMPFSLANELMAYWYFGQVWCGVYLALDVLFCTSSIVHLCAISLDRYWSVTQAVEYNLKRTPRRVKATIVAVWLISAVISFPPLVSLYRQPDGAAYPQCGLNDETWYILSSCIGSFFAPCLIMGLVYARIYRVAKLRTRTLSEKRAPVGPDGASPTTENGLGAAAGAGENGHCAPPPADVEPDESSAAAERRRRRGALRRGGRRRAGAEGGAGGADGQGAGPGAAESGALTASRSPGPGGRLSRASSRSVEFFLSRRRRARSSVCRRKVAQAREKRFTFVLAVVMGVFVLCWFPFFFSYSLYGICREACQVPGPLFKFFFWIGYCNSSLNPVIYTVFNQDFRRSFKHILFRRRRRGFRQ

[6] = target: 5-hydroxytryptamine receptor 5A (Homo sapiens, UniProt P47898); test: as §1, with “HTR5A” for “TMEM97”
[7] = target: T2, 5-hydroxytryptamine receptor 1A (Homo sapiens, UniProt P08908); test: as §1, with “HTR1A” for “TMEM97”
T2 sequence (P08908 whole entry): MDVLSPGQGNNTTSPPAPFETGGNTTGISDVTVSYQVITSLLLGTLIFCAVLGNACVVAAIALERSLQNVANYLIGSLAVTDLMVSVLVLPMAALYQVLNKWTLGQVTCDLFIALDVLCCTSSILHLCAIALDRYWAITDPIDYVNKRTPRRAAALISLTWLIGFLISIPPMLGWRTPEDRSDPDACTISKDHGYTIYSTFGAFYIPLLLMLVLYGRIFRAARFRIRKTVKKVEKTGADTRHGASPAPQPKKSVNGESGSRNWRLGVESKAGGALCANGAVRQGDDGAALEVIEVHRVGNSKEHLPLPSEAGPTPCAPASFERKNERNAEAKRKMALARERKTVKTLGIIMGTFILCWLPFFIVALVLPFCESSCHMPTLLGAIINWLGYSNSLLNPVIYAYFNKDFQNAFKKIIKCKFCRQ

Histamine H2 receptor = Histamine H2 receptor (Homo sapiens, UniProt P25021); test: as §1, with “HRH2” for “TMEM97”
[8] = target: 5-hydroxytryptamine receptor 6 (Homo sapiens, UniProt P50406); test: as §1, with “HTR6” for “TMEM97”
D(3) dopamine receptor = D(3) dopamine receptor (Homo sapiens, UniProt P35462); test: as §1, with “DRD3” for “TMEM97”
[9] = target: T3, Alpha-1B adrenergic receptor (Homo sapiens, UniProt P35368); test: as §1, with “ADRA1B” for “TMEM97”
T3 sequence (P35368 whole entry): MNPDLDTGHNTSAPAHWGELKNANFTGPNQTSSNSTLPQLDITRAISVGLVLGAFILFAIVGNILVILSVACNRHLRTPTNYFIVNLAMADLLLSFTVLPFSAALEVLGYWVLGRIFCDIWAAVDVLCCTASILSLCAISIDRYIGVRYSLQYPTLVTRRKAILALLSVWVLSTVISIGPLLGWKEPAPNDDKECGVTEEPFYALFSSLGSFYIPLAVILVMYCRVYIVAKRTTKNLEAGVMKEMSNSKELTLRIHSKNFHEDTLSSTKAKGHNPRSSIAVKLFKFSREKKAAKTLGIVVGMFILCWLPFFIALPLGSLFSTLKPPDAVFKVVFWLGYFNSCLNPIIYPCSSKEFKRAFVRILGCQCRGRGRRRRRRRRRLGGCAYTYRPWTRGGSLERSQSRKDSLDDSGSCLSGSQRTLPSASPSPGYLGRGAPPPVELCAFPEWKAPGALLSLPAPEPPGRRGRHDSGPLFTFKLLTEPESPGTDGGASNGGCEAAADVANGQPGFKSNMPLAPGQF

[10] = target: 5-hydroxytryptamine receptor 7 (Homo sapiens, UniProt P34969); test: as §1, with “HTR7” for “TMEM97”
[11] = target: 5-hydroxytryptamine receptor 2A (Homo sapiens, UniProt P28223); test: as §1, with “HTR2A” for “TMEM97”
[12] = target: T4, 5-hydroxytryptamine receptor 2C (Homo sapiens, UniProt P28335); test: as §1, with “HTR2C” for “TMEM97”
T4 sequence (P28335 whole entry): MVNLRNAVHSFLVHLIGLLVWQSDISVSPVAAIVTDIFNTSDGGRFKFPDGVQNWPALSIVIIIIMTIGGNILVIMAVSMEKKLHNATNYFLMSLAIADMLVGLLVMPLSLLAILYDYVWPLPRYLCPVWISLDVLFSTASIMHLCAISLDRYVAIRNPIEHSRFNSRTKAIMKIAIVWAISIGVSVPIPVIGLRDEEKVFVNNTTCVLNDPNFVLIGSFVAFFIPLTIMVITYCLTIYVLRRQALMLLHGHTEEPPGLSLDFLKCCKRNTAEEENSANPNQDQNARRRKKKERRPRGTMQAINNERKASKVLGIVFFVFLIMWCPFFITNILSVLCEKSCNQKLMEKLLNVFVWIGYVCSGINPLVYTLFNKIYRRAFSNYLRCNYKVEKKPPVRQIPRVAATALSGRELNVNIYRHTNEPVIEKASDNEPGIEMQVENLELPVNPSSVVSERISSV

[13] = target: Sodium-dependent noradrenaline transporter (Homo sapiens, UniProt P23975); test: as §1, with “SLC6A2” for “TMEM97”
[14] = target: Sigma non-opioid intracellular receptor 1 (Homo sapiens, UniProt Q99720); test: as §1, with “SIGMAR1” for “TMEM97”
[15] = target: T5, Alpha-2B adrenergic receptor (Homo sapiens, UniProt P18089); test: as §1, with “ADRA2B” for “TMEM97”
T5 sequence (P18089 whole entry): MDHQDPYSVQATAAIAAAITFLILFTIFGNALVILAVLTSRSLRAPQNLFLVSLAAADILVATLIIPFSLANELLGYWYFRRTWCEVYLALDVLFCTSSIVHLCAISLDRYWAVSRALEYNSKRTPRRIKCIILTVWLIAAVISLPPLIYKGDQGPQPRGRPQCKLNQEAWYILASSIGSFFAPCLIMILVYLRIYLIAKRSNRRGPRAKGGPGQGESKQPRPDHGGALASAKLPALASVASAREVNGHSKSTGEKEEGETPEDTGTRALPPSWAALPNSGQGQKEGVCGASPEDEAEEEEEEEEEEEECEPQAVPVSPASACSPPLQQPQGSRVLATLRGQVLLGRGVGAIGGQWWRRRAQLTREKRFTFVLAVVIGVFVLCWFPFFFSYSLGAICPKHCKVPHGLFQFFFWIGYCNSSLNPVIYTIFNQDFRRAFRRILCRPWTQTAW

[16] = target: Beta-3 adrenergic receptor (Homo sapiens, UniProt P13945); test: as §1, with “ADRB3” for “TMEM97”
Histamine H1 receptor = Histamine H1 receptor (Homo sapiens, UniProt P35367); test: as §1, with “HRH1” for “TMEM97”

Sequence of D(3) dopamine receptor (P35462 whole entry): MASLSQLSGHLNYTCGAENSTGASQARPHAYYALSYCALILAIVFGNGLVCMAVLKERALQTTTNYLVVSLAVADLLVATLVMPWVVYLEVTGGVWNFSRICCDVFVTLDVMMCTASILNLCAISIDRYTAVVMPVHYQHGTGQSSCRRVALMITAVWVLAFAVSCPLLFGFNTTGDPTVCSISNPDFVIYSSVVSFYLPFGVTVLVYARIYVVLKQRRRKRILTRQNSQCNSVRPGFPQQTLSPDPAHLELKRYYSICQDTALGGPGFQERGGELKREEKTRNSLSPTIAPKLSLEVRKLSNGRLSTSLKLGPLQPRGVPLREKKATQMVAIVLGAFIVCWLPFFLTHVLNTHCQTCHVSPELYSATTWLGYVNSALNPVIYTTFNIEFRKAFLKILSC
Sequence of 5-hydroxytryptamine receptor 6 (P50406 whole entry): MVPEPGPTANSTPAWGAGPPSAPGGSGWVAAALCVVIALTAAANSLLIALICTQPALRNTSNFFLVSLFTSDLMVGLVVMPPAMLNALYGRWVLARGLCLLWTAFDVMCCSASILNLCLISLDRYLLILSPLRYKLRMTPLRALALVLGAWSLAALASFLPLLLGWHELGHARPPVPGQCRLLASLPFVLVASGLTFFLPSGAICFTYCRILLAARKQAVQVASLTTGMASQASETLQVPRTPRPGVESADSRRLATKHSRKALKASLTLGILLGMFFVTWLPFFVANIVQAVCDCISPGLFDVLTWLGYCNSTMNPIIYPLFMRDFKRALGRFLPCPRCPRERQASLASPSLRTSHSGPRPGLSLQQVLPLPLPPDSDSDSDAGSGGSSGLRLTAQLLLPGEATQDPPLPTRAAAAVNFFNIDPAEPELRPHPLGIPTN
Sequence of Mu-type opioid receptor (P35372 whole entry): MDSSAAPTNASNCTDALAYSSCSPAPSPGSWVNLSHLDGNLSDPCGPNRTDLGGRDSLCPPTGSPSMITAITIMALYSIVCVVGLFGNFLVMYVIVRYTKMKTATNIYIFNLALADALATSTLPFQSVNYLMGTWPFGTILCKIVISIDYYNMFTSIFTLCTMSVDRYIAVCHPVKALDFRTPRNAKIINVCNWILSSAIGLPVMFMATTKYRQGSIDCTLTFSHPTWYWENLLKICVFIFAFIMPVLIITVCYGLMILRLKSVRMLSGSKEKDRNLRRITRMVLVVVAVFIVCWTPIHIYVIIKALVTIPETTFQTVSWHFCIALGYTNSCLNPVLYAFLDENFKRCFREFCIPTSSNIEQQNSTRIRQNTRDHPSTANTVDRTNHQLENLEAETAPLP
Sequence of 5-hydroxytryptamine receptor 2B (P41595 whole entry): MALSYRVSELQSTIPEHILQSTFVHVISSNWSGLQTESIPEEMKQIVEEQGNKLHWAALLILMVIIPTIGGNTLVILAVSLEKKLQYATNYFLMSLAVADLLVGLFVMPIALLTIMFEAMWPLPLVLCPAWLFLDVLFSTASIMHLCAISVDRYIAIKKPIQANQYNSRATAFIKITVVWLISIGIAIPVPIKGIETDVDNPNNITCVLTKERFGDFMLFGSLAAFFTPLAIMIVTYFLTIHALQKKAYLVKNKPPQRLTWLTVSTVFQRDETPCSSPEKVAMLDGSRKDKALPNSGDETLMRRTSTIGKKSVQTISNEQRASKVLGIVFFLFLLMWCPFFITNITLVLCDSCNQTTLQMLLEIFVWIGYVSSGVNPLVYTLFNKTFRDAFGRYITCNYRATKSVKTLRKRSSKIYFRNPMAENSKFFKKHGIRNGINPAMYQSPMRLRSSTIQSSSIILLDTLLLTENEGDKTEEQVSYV
Sequence of 5-hydroxytryptamine receptor 2A (P28223 whole entry): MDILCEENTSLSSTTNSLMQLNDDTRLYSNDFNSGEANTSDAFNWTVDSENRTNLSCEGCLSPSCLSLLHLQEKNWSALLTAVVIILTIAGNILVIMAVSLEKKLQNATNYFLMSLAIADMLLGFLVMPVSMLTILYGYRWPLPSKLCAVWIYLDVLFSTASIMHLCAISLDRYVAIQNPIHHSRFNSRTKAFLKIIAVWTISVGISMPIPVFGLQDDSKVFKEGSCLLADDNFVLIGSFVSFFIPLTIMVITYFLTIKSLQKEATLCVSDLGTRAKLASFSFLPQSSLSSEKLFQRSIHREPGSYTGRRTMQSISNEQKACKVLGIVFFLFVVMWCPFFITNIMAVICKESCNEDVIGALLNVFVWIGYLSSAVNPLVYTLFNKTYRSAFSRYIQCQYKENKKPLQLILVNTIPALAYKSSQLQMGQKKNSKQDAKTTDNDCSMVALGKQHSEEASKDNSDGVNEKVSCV
Sequence of Sigma intracellular receptor 2 (Q5BJF2 whole entry): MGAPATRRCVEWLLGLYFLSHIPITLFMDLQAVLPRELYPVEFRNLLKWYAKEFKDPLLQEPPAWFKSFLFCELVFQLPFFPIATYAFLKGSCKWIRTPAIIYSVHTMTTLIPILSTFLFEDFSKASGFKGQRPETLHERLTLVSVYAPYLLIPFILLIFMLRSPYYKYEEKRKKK
Sequence of Sodium-dependent noradrenaline transporter (P23975 whole entry): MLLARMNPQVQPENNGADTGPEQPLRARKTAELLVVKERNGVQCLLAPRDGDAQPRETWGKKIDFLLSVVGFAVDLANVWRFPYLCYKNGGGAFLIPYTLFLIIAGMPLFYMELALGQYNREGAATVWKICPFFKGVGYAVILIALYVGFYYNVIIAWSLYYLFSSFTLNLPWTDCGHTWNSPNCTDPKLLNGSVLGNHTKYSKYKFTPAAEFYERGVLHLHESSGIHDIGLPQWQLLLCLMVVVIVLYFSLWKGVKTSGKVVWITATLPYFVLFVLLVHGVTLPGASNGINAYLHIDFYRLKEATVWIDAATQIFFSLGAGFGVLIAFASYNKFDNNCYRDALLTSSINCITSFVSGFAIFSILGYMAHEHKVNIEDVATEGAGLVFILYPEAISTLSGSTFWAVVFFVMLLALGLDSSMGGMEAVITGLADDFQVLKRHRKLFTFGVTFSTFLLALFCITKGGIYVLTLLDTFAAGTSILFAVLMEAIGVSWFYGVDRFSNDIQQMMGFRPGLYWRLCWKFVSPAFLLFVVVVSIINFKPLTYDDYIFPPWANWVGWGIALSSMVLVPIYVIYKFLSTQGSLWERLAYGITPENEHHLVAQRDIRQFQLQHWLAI
Sequence of Kappa-type opioid receptor (P41145 whole entry): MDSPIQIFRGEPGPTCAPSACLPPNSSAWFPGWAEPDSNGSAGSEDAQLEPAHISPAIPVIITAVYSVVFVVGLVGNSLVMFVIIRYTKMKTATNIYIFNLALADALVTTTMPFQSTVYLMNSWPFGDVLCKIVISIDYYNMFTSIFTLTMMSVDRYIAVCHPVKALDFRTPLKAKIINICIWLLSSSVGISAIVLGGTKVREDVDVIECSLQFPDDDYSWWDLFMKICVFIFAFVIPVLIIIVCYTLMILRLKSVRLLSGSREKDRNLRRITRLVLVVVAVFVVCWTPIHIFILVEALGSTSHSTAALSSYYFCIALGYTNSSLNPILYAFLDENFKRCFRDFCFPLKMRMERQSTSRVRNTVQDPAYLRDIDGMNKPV
Sequence of Histamine H2 receptor (P25021 whole entry): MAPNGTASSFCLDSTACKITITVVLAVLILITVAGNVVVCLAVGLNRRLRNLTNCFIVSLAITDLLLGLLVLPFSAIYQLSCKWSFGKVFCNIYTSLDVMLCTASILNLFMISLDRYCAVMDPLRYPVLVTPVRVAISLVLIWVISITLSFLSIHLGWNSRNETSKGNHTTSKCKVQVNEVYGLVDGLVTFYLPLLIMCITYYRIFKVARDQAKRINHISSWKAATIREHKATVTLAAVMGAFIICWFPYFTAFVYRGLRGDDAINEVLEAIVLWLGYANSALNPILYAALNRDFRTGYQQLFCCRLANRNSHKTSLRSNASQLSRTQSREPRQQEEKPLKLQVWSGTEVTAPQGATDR
Sequence of 5-hydroxytryptamine receptor 5A (P47898 whole entry): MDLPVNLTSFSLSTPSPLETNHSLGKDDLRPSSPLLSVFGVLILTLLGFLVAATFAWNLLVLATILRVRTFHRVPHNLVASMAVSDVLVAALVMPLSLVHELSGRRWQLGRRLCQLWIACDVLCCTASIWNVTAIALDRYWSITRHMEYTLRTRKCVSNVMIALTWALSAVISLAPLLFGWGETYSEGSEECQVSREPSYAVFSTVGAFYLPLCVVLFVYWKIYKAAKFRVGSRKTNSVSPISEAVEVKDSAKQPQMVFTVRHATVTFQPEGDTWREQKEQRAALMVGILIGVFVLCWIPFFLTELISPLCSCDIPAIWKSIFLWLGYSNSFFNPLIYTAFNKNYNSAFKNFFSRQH
Sequence of Beta-3 adrenergic receptor (P13945 whole entry): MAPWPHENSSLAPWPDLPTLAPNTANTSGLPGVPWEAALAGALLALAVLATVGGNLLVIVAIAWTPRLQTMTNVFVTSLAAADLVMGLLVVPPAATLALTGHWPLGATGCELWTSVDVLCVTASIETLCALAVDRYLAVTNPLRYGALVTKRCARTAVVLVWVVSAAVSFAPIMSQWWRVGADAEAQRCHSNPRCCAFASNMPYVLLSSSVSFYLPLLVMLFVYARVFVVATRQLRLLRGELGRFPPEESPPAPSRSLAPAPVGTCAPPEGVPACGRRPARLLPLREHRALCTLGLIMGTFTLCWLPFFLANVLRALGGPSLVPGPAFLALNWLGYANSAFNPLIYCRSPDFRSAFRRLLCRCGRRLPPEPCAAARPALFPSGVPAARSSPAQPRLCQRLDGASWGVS
Sequence of 5-hydroxytryptamine receptor 1D (P28221 whole entry): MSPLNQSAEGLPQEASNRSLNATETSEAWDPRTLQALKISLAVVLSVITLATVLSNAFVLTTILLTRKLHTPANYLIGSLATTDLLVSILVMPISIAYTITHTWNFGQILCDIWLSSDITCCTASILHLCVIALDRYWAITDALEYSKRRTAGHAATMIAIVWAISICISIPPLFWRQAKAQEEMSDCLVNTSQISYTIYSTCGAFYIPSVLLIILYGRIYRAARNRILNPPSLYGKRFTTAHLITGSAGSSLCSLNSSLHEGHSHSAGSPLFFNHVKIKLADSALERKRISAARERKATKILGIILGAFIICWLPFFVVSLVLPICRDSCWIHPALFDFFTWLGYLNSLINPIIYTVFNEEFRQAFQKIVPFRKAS

| Ki [1] [µM] | Ki [2] [µM] | Ki [3] [µM] | Ki [4] [µM] | Ki (Mu-type opioid receptor) [µM] | Ki [5] [µM] | Ki [6] [µM] | Ki [7] [µM] | Ki (Histamine H2 receptor) [µM] | Ki [8] [µM] | Ki (D(3) dopamine receptor) [µM] | Ki [9] [µM] | Ki [10] [µM] | Ki [11] [µM] | Ki [12] [µM] | Ki [13] [µM] | Ki [14] [µM] | Ki [15] [µM] | Ki [16] [µM] | Ki (Histamine H1 receptor) [µM] | SMILES |
| --- | --- | --- | --- | --- | --- | --- | --- | --- | --- | --- | --- | --- | --- | --- | --- | --- | --- | --- | --- | --- |
| 0.388 | 1.7 | 0.444 | 0.0397 | 1.3 | 1.57 | 0.972 | 1.96 | 2.62 | 1.82 | 0.391 | 2.89 | 0.571 | 0.842 | 0.658 | 1.45 | – | – | – | – | C[C@@H](NCCCc1cccc(C(F)(F)F)c1)c1cccc2ccccc12 [CINACALCET HYDROCHLORIDE] |
| 0.0746 | – | 1.4 | 0.043 | 2.21 | 1.58 | 1.09 | 1.44 | 1.4 | 2.32 | 0.875 | – | – | 0.181 | 0.162 | 1.93 | 0.0415 | 0.955 | > 10 | 0.909 | COc1cccc([C@@H](C)NCCCc2ccccc2Cl)c1 [TECALCET HYDROCHLORIDE] |
